Assays:
Assay in all cases: relative viability (nuclei count vs DMSO), 5 days (fraction); higher = more cells survive
Imatinib + Pictilisib = compound: Cc1ccc(NC(=O)c2ccc(CN3CCN(C)CC3)cc2)cc1Nc1nccc(-c2cccnc2)n1 [Imatinib] + CS(=O)(=O)N1CCN(Cc2cc3nc(-c4cccc5[nH]ncc45)nc(N4CCOCC4)c3s2)CC1 [Pictilisib] (partner 1 µM)
Method in brief: (§1)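 The day after seeding in 1536-well plates, lung cancer cell lines were treated by pin tool with a single drug, or with a fixed anchor-drug dose together with five library-drug doses (not always all listed) in √10 steps. After 5 days, a combined fix-and-stain solution (final 0.05% Triton X-100, 1% formaldehyde, 1 ug/ml Hoechst) was added. Nuclei counted on 4× images gave relative viability as treated counts over vehicle counts, reported as the median of duplicate plates.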

Imatinib + Bortezomib = compound: Cc1ccc(NC(=O)c2ccc(CN3CCN(C)CC3)cc2)cc1Nc1nccc(-c2cccnc2)n1 [Imatinib] + CC(C)C[C@H](NC(=O)[C@H](Cc1ccccc1)NC(=O)c1cnccn1)B(O)O [Bortezomib] (partner 0.002 µM)
Method in brief: as §1

Imatinib + Lapatinib = compound: Cc1ccc(NC(=O)c2ccc(CN3CCN(C)CC3)cc2)cc1Nc1nccc(-c2cccnc2)n1 [Imatinib] + CS(=O)(=O)CCNCc1ccc(-c2ccc3ncnc(Nc4ccc(OCc5cccc(F)c5)c(Cl)c4)c3c2)o1 [Lapatinib] (partner 2 µM)
Method in brief: as §1

Imatinib + Pemetrexed = compound: Cc1ccc(NC(=O)c2ccc(CN3CCN(C)CC3)cc2)cc1Nc1nccc(-c2cccnc2)n1 [Imatinib] + Nc1nc2[nH]cc(CCc3ccc(C(=O)N[C@@H](CCC(=O)O)C(=O)O)cc3)c2c(=O)[nH]1 [Pemetrexed] (partner 0.2 µM)
Method in brief: as §1

Cell Line	relative viability (Imatinib + Pictilisib; first compound 0.02 µM)	relative viability (Imatinib + Pictilisib; first compound 0.06325 µM)	relative viability (Imatinib + Pictilisib; first compound 0.2 µM)	relative viability (Imatinib + Pictilisib; first compound 0.6325 µM)	relative viability (Imatinib + Pictilisib; first compound 2 µM)	relative viability (Imatinib + Bortezomib; first compound 0.02 µM)	relative viability (Imatinib + Bortezomib; first compound 0.06325 µM)	relative viability (Imatinib + Bortezomib; first compound 0.2 µM)	relative viability (Imatinib + Bortezomib; first compound 0.6325 µM)	relative viability (Imatinib + Bortezomib; first compound 2 µM)	relative viability (Imatinib + Lapatinib; first compound 0.02 µM)	relative viability (Imatinib + Lapatinib; first compound 0.06325 µM)	relative viability (Imatinib + Lapatinib; first compound 0.2 µM)	relative viability (Imatinib + Lapatinib; first compound 0.6325 µM)	relative viability (Imatinib + Lapatinib; first compound 2 µM)	relative viability (Imatinib + Pemetrexed; first compound 0.02 µM)	relative viability (Imatinib + Pemetrexed; first compound 0.06325 µM)	relative viability (Imatinib + Pemetrexed; first compound 0.2 µM)	relative viability (Imatinib + Pemetrexed; first compound 2 µM)	relative viability (Imatinib + Pemetrexed; first compound 0.6325 µM)
NCI-H2085	0.448	0.462	0.472	0.594	0.434	1.05	0.902	1.08	1.13	1.04	0.754	0.591	0.733	0.819	0.694	0.837	0.892	0.917	0.834	
201T	0.711		0.664	0.729	0.679	1.08		1.13		1.06	0.993			0.989	0.989	0.317	0.24	0.391	0.31	0.284
RERF-LC-KJ	0.636	0.422	0.541	0.487	0.498	1.13	1.1	1.32		0.909		0.853	0.498	0.819	0.763	0.448	0.369	0.507	0.43	0.487
NCI-H520	0.348	0.362	0.305	0.289	0.306	0.781	0.639	0.476	0.558	0.512	1.06		1.01	0.82	0.86	0.556	0.768	0.709	0.733	0.716
NCI-H1792	0.264	0.198	0.214	0.237	0.277	1.21	0.951	0.675	0.861	0.935	0.859	1.08	0.954	0.942	0.838	1.06	0.931	0.848	0.748	
HCC-44	0.604	0.653	0.974	0.548	0.529	1.04	0.945	0.979	0.896	0.813	1.13	1.15		0.991	0.934	0.653		0.68	0.544	0.671
NCI-H1734	0.515		0.559	0.428		1.3		1.02	0.938		1.26		1.3	1.1		0.402		0.425	0.388	0.377
NCI-H2126	0.507		0.484	0.452	0.475	1.12		1.19	1.05	1.12			0.828	0.684	0.704	0.667	0.524	0.704	0.725	0.634
NCI-H661	0.333	0.431	0.456	0.374	0.413	0.81	0.613	0.821	0.607	0.852	0.434	0.296	0.546	0.19	0.481	0.915	1.09	0.93	0.936	0.931
HOP-62	0.775		0.822	0.569	0.958	1.14		1.19	0.732	0.598	1.03		0.999	0.935	0.991	0.302		0.356	0.317	0.29
HCC-15	0.719	0.324	0.777	0.809	0.698	1.03	0.93	1.07	1.13	1.02		0.582	1	0.901	0.839	0.225	0.234	0.236	0.211	0.218
NCI-H1755	0.457	0.348	0.531	0.495	0.473	1.13	1.09	1.03		0.928	1.14	0.994	1.06	0.997	1.02	0.568	0.44	0.416	0.625	0.386
NCI-H322M	0.516	0.454	0.561	0.485	0.565	1.16	1.34	1.26	1.1	1.1	0.613	0.61	0.656	0.534	0.63	0.677	0.613	0.63	0.63	0.563
NCI-H650	1.09	1.01	0.855	0.885		0.893	0.823	0.805	1.03	0.616	1.02	1.16	1	1.11	0.85	0.986		0.834	0.875	0.951
NCI-H2009	0.809	0.429	0.909	0.878	0.896	1.05	0.476	1.08	1	0.906	0.974	0.442	1.05	0.87	0.939	1.11	1.17	1.05	0.993	0.984
NCI-H1437	0.391	0.454	0.422	0.463	0.424	0.697	0.528	0.541	0.432	0.547	0.916	0.841	0.925	0.706	0.823	0.318	0.354	0.374	0.279	0.33
LCLC-97TM1			0.18	0.225	0.164	0.552			0.741	0.524			0.958	0.878	0.734	0.183		0.197	0.184	0.165
NCI-H2347	0.414	0.508	0.64	0.453	0.738	0.846		1.04	1	0.876	0.995	0.913	1.05	1.04	0.91	0.371	0.44	0.416	0.416	0.467

Source: the supplement of paper PMC10307832
